Source: publication PMC10882719 (Frontiers in Neuroscience, 2024)
Where two headings read alike, the source gives them in different places.

Columns and labels:
Assay type in all cases: cell-based
168 GPCRs [1] = target: T1, 168 GPCRs (Homo sapiens, UniProt P47901); settings: AVPR1B
T1 construct: host or cells: PathHunter cell lines
T1 sequence (P47901 1-424): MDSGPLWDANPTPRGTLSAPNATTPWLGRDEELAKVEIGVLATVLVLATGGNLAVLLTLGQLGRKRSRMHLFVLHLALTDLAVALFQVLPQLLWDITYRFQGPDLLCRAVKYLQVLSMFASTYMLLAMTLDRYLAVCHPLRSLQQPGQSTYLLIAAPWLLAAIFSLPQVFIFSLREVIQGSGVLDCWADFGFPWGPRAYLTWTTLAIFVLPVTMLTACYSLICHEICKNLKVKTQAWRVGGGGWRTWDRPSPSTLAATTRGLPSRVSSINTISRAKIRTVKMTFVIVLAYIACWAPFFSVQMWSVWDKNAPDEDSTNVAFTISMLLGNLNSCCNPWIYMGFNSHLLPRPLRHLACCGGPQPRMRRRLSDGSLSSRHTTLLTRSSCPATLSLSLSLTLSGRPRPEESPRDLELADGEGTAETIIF

168 GPCRs [2] = target: T2, 168 GPCRs (Homo sapiens, UniProt P25929); settings: NPY1R
T2 construct: host or cells: PathHunter cell lines
T2 sequence (P25929 1-384): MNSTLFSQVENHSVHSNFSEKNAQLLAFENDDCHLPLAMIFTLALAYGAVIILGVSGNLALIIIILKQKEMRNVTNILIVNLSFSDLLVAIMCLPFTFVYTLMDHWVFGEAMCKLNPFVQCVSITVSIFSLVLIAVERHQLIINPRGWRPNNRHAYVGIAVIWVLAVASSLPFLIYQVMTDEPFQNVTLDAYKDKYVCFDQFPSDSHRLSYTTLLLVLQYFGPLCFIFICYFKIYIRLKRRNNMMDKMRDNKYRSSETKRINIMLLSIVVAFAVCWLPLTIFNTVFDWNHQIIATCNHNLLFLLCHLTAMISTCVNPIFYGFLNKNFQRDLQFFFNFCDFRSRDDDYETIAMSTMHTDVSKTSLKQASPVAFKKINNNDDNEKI

168 GPCRs [3] = tested on: 168 GPCRs
168 GPCRs [4] = target: T3, 168 GPCRs (Homo sapiens, UniProt P41143); settings: OPRD1
T3 construct: host or cells: PathHunter cell lines
T3 sequence (P41143 whole entry): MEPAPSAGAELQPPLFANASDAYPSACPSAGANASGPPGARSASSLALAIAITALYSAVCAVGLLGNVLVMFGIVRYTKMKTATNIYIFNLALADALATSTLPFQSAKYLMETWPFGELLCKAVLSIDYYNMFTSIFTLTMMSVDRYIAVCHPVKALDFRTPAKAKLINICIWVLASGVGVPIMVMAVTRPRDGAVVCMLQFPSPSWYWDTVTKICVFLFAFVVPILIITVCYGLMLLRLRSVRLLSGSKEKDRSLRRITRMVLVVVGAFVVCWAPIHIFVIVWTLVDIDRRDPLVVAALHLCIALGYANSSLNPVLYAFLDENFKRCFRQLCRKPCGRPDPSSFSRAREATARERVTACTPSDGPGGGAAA

168 GPCRs [5] = target: T4, 168 GPCRs (Homo sapiens, UniProt P51677)
T4 construct: host or cells: PathHunter cell lines
T4 sequence (P51677 1-355): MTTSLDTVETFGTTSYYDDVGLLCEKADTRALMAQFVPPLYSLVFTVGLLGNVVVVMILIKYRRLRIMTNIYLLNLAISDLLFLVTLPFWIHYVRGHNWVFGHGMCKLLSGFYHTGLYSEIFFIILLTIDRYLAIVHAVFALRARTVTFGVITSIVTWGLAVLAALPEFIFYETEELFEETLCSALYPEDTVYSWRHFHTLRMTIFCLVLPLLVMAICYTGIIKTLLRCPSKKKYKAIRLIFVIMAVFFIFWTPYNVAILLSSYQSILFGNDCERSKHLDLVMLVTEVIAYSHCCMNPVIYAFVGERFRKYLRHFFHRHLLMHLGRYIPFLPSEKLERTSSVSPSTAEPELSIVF

168 GPCRs [6] = target: T5, 168 GPCRs (Homo sapiens, UniProt P28566); settings: HTR1E
T5 construct: host or cells: PathHunter cell lines
T5 sequence (P28566 whole entry): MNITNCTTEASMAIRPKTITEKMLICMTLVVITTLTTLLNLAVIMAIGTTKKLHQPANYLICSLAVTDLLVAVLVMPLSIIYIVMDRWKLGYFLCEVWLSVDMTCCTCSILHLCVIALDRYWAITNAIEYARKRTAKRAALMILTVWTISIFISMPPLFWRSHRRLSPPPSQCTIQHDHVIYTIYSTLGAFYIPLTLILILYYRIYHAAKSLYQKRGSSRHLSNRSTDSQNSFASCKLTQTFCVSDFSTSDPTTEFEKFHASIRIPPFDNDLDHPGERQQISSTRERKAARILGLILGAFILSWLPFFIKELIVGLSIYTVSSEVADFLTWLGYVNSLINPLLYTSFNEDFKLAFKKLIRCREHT

168 GPCRs [7] = target: T6, 168 GPCRs (Homo sapiens, UniProt P55085)
T6 construct: host or cells: PathHunter cell lines
T6 sequence (P55085 26-397): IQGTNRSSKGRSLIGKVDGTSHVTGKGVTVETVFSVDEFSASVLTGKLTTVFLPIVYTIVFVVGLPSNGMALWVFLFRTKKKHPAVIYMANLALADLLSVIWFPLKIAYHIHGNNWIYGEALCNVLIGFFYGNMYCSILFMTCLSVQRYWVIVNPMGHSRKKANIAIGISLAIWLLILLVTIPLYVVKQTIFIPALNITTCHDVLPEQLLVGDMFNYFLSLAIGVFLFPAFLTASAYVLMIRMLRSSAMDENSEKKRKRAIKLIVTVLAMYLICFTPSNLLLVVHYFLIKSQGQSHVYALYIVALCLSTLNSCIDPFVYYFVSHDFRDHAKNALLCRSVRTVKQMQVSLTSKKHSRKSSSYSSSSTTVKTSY

| Compound | % Agonist Activity (168 GPCRs [1]; 1 uM) [%] | % Antagonist Activity (168 GPCRs [1]; 1 uM) [%] | % Agonist Activity (168 GPCRs [1]; 10 uM) [%] | % Antagonist Activity (168 GPCRs [1]; 10 uM) [%] | % Agonist Activity (168 GPCRs [2]; Conc 1 uM) [%] | % Antagonist Activity (168 GPCRs [2]; Conc 1 uM) [%] | % Agonist Activity (168 GPCRs [2]; Conc 10 uM) [%] | % Antagonist Activity (168 GPCRs [2]; Conc 10 uM) [%] | % Agonist Activity (168 GPCRs [3]; DRD2S, 1 uM) [%] | % Antagonist Activity (168 GPCRs [3]; DRD2S, 1 uM) [%] | % Agonist Activity (168 GPCRs [3]; DRD2S, 10 uM) [%] | % Antagonist Activity (168 GPCRs [3]; DRD2S, 10 uM) [%] | % Agonist Activity (168 GPCRs [3]; NPSR1B, Conc 1 uM) [%] | % Antagonist Activity (168 GPCRs [3]; NPSR1B, Conc 1 uM) [%] | % Agonist Activity (168 GPCRs [3]; NPSR1B, Conc 10 uM) [%] | % Antagonist Activity (168 GPCRs [3]; NPSR1B, Conc 10 uM) [%] | % Agonist Activity (168 GPCRs [4]; Conc 1 uM) [%] | % Antagonist Activity (168 GPCRs [4]; Conc 1 uM) [%] | % Agonist Activity (168 GPCRs [4]; Conc 10 uM) [%] | % Antagonist Activity (168 GPCRs [4]; Conc 10 uM) [%] | other results |
| --- | --- | --- | --- | --- | --- | --- | --- | --- | --- | --- | --- | --- | --- | --- | --- | --- | --- | --- | --- | --- | --- |
| CNC(C)C(=O)c1ccc2c(c1)OCO2 (stereo not drawn) [methylone] | -1.2 | 9.8 | -1.1 | 3.5 | -2.2 | 0.2 | -4.9 | 5.4 | 0 | 3.6 | 0.6 | -11.6 | -1.3 | -10.6 | 4.8 | -7.6 | -2 | -2.7 | -1.5 | 3.5 | Agonist activity at any of 168 GPCRs (168 GPCRs [3]; 1 or 10 μM, threshold 30% activity): no significant agonist activity; Antagonist activity at any GPCR (168 GPCRs [3]; 1 or 10 μM, threshold 50% inhibition): no significant antagonist activity; % Agonist Activity (168 GPCRs [5]; CCR3, 1 uM): -6.7%; % Antagonist Activity (168 GPCRs [5]; CCR3, 1 uM): -11.8%; % Agonist Activity (168 GPCRs [5]; CCR3, 10 uM): -7.6%; % Antagonist Activity (168 GPCRs [5]; CCR3, 10 uM): -4%; % Agonist Activity (168 GPCRs [6]; 1 uM): -3.5%; % Antagonist Activity (168 GPCRs [6]; 1 uM): 7.6%; % Agonist Activity (168 GPCRs [6]; 10 uM): 0.2%; % Antagonist Activity (168 GPCRs [6]; 10 uM): 13.2%; % Agonist Activity (168 GPCRs [7]; F2RL1, 1 uM): -0.6%; % Antagonist Activity (168 GPCRs [7]; F2RL1, 1 uM): -26.8%; % Agonist Activity (168 GPCRs [7]; F2RL1, 10 uM): 3.8%; % Antagonist Activity (168 GPCRs [7]; F2RL1, 10 uM): -16.2% |
| CNC(C)Cc1ccc2c(c1)OCO2 (stereo not drawn) [MDMA, 3,4-Methylenedioxy methamphetamine, reference compound] | -1 | 8.1 | -1.8 | 0.8 | 1.3 | -3.9 | 0.6 | 2.2 | 1.6 | 5.8 | 1.9 | 14.7 | -3.8 | 4.3 | -5.1 | 5 | -0.7 | -15.5 | -1.1 | -17.6 | % Agonist Activity (168 GPCRs [5]; CCR3, 1 uM): -1.5%; % Antagonist Activity (168 GPCRs [5]; CCR3, 1 uM): 1.5%; % Agonist Activity (168 GPCRs [5]; CCR3, 10 uM): -1.3%; % Antagonist Activity (168 GPCRs [5]; CCR3, 10 uM): 9.6%; % Agonist Activity (168 GPCRs [6]; 1 uM): 1.9%; % Antagonist Activity (168 GPCRs [6]; 1 uM): 18%; % Agonist Activity (168 GPCRs [6]; 10 uM): 1.1%; % Antagonist Activity (168 GPCRs [6]; 10 uM): 12.7%; % Agonist Activity (168 GPCRs [7]; F2RL1, 1 uM): 16.4%; % Antagonist Activity (168 GPCRs [7]; F2RL1, 1 uM): 9.6%; % Agonist Activity (168 GPCRs [7]; F2RL1, 10 uM): 1.8%; % Antagonist Activity (168 GPCRs [7]; F2RL1, 10 uM): 10.9% |
